According to US7960397B2, “6,9-disubstituted purine derivatives and their use as cosmetics and cosmetic compositions” (Institute of Experimental Botany, Academy of Sciences of …, priority 2007, dated 2011):
Where two headings read alike, the source gives them in different places.

Key:
[1] = test system: cytokinin-dependent tobacco callus Nicotiana tabacum L. cv. Wisconsin 38; assay: Cytokinin activity in tobacco callus bioassay; format: cell-based; settings: for concentration with highest activity: growth of tobacco callus, four weeks of cultivation, tested 10^−8 M to 10^−4 M; for Activity (%) [10^−5 mol · l^−1 BAP = 100%]: increase of fresh callus weight at the concentration with highest activity, 10^−5 M BAP = 100%
[2] = test system: Amaranthus caudatus cotyledon/hypocotyl explants; assay: Amaranthus bioassay (betacyanin content); design: species or system Amaranthus caudatus var. atropurpurea; settings: for concentration with highest activity: betacyanin content after 48 h incubation, tested 10^−8 M to 10^−4 M; for Activity (%) [10^−5 mol · l^−1 BAP = 100%]: betacyanin content at the concentration with highest activity, 10^−5 M BAP = 100%
Summary of the method: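 Amaranthus caudatus explants (cotyledons plus hypocotyl) from 72 h dark-grown seedlings were incubated in darkness on medium with 10 mmol Na2HPO4–KH2PO4 pH 6.8, 5 mmol tyrosine and test compound; stock was 10^−3 M in DMSO/water. Betacyanin was measured as A537−A620 and activity expressed relative to 10^−5 M BAP (100%).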

excised wheat leaf tips = assay: Antisenescence test, retention of chlorophyll in excised wheat leaf tips; design: species or system Triticum aestivum cv. Hereward; settings: for activity (%) [10^−4 mol · l^−1 BAP = 100%]: retention of chlorophyll in excised wheat leaf tips at the concentration with highest activity, 10 replicate determinations; for concentration with highest activity: retention of chlorophyll in excised wheat leaf tips, tested range 10^−8 M to 10^−4 M, 96 h in the dark at 25° C.
Summary of the method: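 Winter wheat seedlings (Triticum aestivum cv. Hereward) were raised on vermiculite with Knop's solution at 25° C. for 7 days. Tips of the first leaf, 35 mm long (five tips, 100 mg combined), stood in […] of test solution in microtiter wells. After 96 h in the dark at 25° C., chlorophyll was extracted in 80% ethanol at 80° C. and read at 665 nm. Activity is relative to 10^−4 M BAP (100%).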

[3] = test system: human diploid fibroblasts (HCA cells, HCA20, HCA40, HCA60); assay: Senescent cells (β-galactosidase staining) in culture of human fibroblasts; format: cell-based; settings: for SENESCENT CELLS (%) HCA20: human fibroblasts passage 20 (HCA20); for SENESCENT CELLS (%) HCA40: human fibroblasts passage 40 (HCA40); for SENESCENT CELLS (%) HCA60: human fibroblasts passage 60 (HCA60)
Summary of the method: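 Fibroblasts taken at passages 20, 40 and 60 were washed and fixed for 5 min at room temperature in 2% formaldehyde/0.2% glutaraldehyde in PBS. After PBS washes, cells were incubated at 37 °C for β-galactosidase staining.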

[4] = test system: Human T-lymphoblastic leukemia cell line CEM; assay: In vitro cytotoxicity, Calcein AM assay; settings: read-out: GI50 CEM
Procedure: (§1) Because only metabolically active cells cleave Calcein AM, these assays detect viable cells exclusively. The quantity of reduced Calcein AM corresponds to the number of vital cells in the culture.
(§2) The cells were maintained in Nunc/Corning 80 cm^2 plastic tissue culture flasks and cultured in cell culture medium (DMEM with 5 g/l glucose, 2 mM glutamine, 100 U/ml penicillin, 100 mg/ml streptomycin, 10% fetal calf serum and sodium bicarbonate).
(§3) The cell suspensions that were prepared and diluted according to the particular cell type and the expected target cell density (2,500-30,000 cells per well based on cell growth characteristics) were added by pipette (80 ml) into 96-well microtiter plates. Inoculates were allowed a pre-incubation period of 24 hours at 37° C. and 5% CO2 for stabilization. Four-fold dilutions of the intended test concentration were added at time zero in 20 ml aliquots to the microtiter plate wells. Usually, the compound tested was evaluated at six 4-fold dilutions. […] All drug concentrations were examined in duplicate. Incubations of cells with the tested compounds lasted for 72 hours at 37° C., in a 5% CO2 atmosphere and 100% humidity. At the end of the incubation period, the cells were assayed by using Calcein AM. Ten microliters of the stock solution were pipetted into each well and incubated for 1 hour. Fluorescence (FD) was measured with the Labsystem FIA Reader Fluoroscan Ascent (UK).

[5] = test system: promyelocytic HL-60 leukemia; assay: In vitro cytotoxicity, Calcein AM assay; settings: read-out: GI50 HL60
Procedure: as §1, §2, §3

[6] = test system: breast carcinoma cell line MCF-7; assay: In vitro cytotoxicity, Calcein AM assay; settings: read-out: GI50 MCF7
Procedure: as §1, §2, §3

mouse fibroblasts NIH3T3 = assay: In vitro cytotoxicity, Calcein AM assay; settings: read-out: GI50 NIH-3T3
Procedure: as §1, §2, §3

human osteosarcoma HOS = assay: In vitro cytotoxicity, Calcein AM assay; settings: read-out: GI50 HOS
Procedure: as §1, §2, §3

[7] = test system: human myeloid leukemia K-562; assay: In vitro cytotoxicity, Calcein AM assay; settings: read-out: GI50 K-562; K-562, 72 hours, Calcein AM
Procedure: as §1, §2, §3

## Cc1cc(CNc2ncnc3c2ncn3C2CCCCO2)ccc1O (stereo not drawn) [4-hydroxy-5-methylbenzylamino / tetrahydropyran-2-yl]
[1]
  concentration with highest activity: 10^−5 mol · l^−1
  Activity (%) [10^−5 mol · l^−1 BAP = 100%]: 6%
[2]
  concentration with highest activity: 10^−4 mol · l^−1
  Activity (%) [10^−5 mol · l^−1 BAP = 100%]: 5%
Excised wheat leaf tips
  activity (%) [10^−4 mol · l^−1 BAP = 100%]: 3%
  concentration with highest activity: 10^−4 mol · l^−1
[3]
  SENESCENT CELLS (%) HCA20: 3%
  SENESCENT CELLS (%) HCA40: 4%
  SENESCENT CELLS (%) HCA60: 20%
[4]; CEM, 72 hours, Calcein AM
  GI50: > 167 µM
[5]; HL60, 72 hours, Calcein AM
  GI50: > 1670 µM
[6]; MCF7, 72 hours, Calcein AM
  GI50: > 167 µM
Mouse fibroblasts NIH3T3; NIH-3T3, 72 hours, Calcein AM
  GI50: > 1670 µM
Human osteosarcoma HOS; HOS, 72 hours, Calcein AM
  GI50: > 167 µM

## CC(C)=CCNc1ncnc2nc[nH]c12 [isopentenylamino / H]
[4]; CEM, 72 hours, Calcein AM
  GI50: 92.2 µM
[5]; HL60, 72 hours, Calcein AM
  GI50: > 167 µM
[6]; MCF7, 72 hours, Calcein AM
  GI50: > 167 µM
Mouse fibroblasts NIH3T3; NIH-3T3, 72 hours, Calcein AM
  GI50: > 167 µM
Human osteosarcoma HOS; HOS, 72 hours, Calcein AM
  GI50: > 167 µM
[7]
  GI50: 147 µM

## Oc1coc(CNc2ncnc3c2ncn3C2CCCCO2)c1 (stereo not drawn)
[1]
  concentration with highest activity: 10^−6 mol · l^−1
  Activity (%) [10^−5 mol · l^−1 BAP = 100%]: 91%
[2]
  concentration with highest activity: 10^−4 mol · l^−1
  Activity (%) [10^−5 mol · l^−1 BAP = 100%]: 115%
Excised wheat leaf tips
  activity (%) [10^−4 mol · l^−1 BAP = 100%]: 101%
  concentration with highest activity: 10^−4 mol · l^−1
[3]
  SENESCENT CELLS (%) HCA20: 4%
  SENESCENT CELLS (%) HCA40: 4%
  SENESCENT CELLS (%) HCA60: 16%
[6]; MCF7, 72 hours, Calcein AM
  GI50: > 167 µM
Human osteosarcoma HOS; HOS, 72 hours, Calcein AM
  GI50: > 167 µM
[7]
  GI50: > 167 µM

## Oc1ccccc1CNc1ncnc2[nH]cnc12 [2-hydroxybenzylamino / H, reference compound]
[1]
  concentration with highest activity: 10^−5 mol · l^−1
  Activity (%) [10^−5 mol · l^−1 BAP = 100%]: 72.3%
[2]
  concentration with highest activity: 10^−4 mol · l^−1
  Activity (%) [10^−5 mol · l^−1 BAP = 100%]: 32.6%
Excised wheat leaf tips
  activity (%) [10^−4 mol · l^−1 BAP = 100%]: 22.4%
  concentration with highest activity: 10^−4 mol · l^−1
[4]; CEM, 72 hours, Calcein AM
  GI50: 69.2 µM
[5]; HL60, 72 hours, Calcein AM
  GI50: 78 µM
[6]; MCF7, 72 hours, Calcein AM
  GI50: > 167 µM
Mouse fibroblasts NIH3T3; NIH-3T3, 72 hours, Calcein AM
  GI50: > 167 µM
Human osteosarcoma HOS; HOS, 72 hours, Calcein AM
  GI50: > 167 µM
[7]
  GI50: > 167 µM

## Oc1cccc(CNc2ncnc3[nH]cnc23)c1 [3-hydroxybenzylamino / H, reference compound]
[1]
  concentration with highest activity: 10^−5 mol · l^−1
  Activity (%) [10^−5 mol · l^−1 BAP = 100%]: 116%
[2]
  concentration with highest activity: 10^−5 mol · l^−1
  Activity (%) [10^−5 mol · l^−1 BAP = 100%]: 99%
Excised wheat leaf tips
  activity (%) [10^−4 mol · l^−1 BAP = 100%]: 105.9%
  concentration with highest activity: 10^−4 mol · l^−1
[4]; CEM, 72 hours, Calcein AM
  GI50: 90.1 µM
[5]; HL60, 72 hours, Calcein AM
  GI50: 79.2 µM
[6]; MCF7, 72 hours, Calcein AM
  GI50: > 167 µM
Mouse fibroblasts NIH3T3; NIH-3T3, 72 hours, Calcein AM
  GI50: > 167 µM
Human osteosarcoma HOS; HOS, 72 hours, Calcein AM
  GI50: > 167 µM
[7]
  GI50: 128 µM

## c1coc(CNc2ncnc3[nH]cnc23)c1 [furfurylamino / H, reference compound]
[4]; CEM, 72 hours, Calcein AM
  GI50: 155 µM
[5]; HL60, 72 hours, Calcein AM
  GI50: 149 µM
[6]; MCF7, 72 hours, Calcein AM
  GI50: > 167 µM
Mouse fibroblasts NIH3T3; NIH-3T3, 72 hours, Calcein AM
  GI50: > 167 µM
Human osteosarcoma HOS; HOS, 72 hours, Calcein AM
  GI50: > 167 µM
[7]
  GI50: 164 µM

## C/C(=C\CNc1ncnc2nc[nH]c12)CO [6-((E)-4-hydroxy-3-methylbut-2-enylamino)purine, reference compound]
[1]
  Activity (%) [10^−5 mol · l^−1 BAP = 100%]: 86.9%
[2]
  Activity (%) [10^−5 mol · l^−1 BAP = 100%]: 116%
Excised wheat leaf tips
  activity (%) [10^−4 mol · l^−1 BAP = 100%]: 28.3%
[4]; Homo sapiens, 72 h
  GI50: > 167 µM
[5]; Homo sapiens, HL-60, 72 h
  GI50: > 167 µM
[6]; Homo sapiens, MCF7, 72 h
  GI50: > 167 µM
Mouse fibroblasts NIH3T3; Mus musculus, NIH3T3, 72 h
  GI50: > 167 µM
Human osteosarcoma HOS; Homo sapiens, 72 h
  GI50: > 167 µM

## Cc1cc(CNc2ncnc3c2ncn3C2CCCCO2)ccc1O (stereo not drawn) [4-hydroxy-3-methylbenzylamino / tetrahydropyran-2-yl]
[1]
  concentration with highest activity: 10^−5 mol · l^−1
  Activity (%) [10^−5 mol · l^−1 BAP = 100%]: 4%
[2]
  concentration with highest activity: 10^−4 mol · l^−1
  Activity (%) [10^−5 mol · l^−1 BAP = 100%]: 7%
Excised wheat leaf tips
  activity (%) [10^−4 mol · l^−1 BAP = 100%]: 9%
  concentration with highest activity: 10^−4 mol · l^−1
[3]
  SENESCENT CELLS (%) HCA20: 4%
  SENESCENT CELLS (%) HCA40: 6%
  SENESCENT CELLS (%) HCA60: 22%
[4]; CEM, 72 hours, Calcein AM
  GI50: > 167 µM
[5]; HL60, 72 hours, Calcein AM
  GI50: > 167 µM
[6]; MCF7, 72 hours, Calcein AM
  GI50: > 167 µM
Mouse fibroblasts NIH3T3; NIH-3T3, 72 hours, Calcein AM
  GI50: > 167 µM
Human osteosarcoma HOS; HOS, 72 hours, Calcein AM
  GI50: > 167 µM
